Experimental findings from US8563549B2, “Pyrimidine derivatives used as PI-3 kinase inhibitors” (Novartis AG, priority 2006, dated 2013) are described below.

pEC50, pIC50: −log10 of the molar value. Where two headings read alike, the source gives them in different places. Bounds are passed on as bounds.

The subject of test [1] is A2780 ovarian cancer cells. Briefly: Cellular proliferation, Cell Titer Glo (Biological Method 4). It counts as cell-based. The settings on record: Homo sapiens, ovarian cancer cell line A2780. The protocol:
In addition, many of the compounds of Table 1 were tested to determine their inhibitory activity in a cellular proliferation assay according to Biological Method 4.
The ability of the compounds of the invention to inhibit cellular proliferation were determined by using Cell Titer Glo, a commercially available assay from Promega Corporation. A2780 ovarian cancer cells were seeded in TC treated 96-well plates at a density of 1,000 per well in DMEM, 10% FBS, 1% Sodium Pyruvate, and 1% Penicillin Streptomycin for a minimum of 2 hrs prior to addition of compound. For each concentration of test compound, 2 μl (500×) aliquots of compound or 100% DMSO diluted in 500 μl of culture medium for 2× concentration then diluted 1× on the Cells. Cells were incubated for 72 hrs at 37° C., 5% CO2. After the 72 hour incubation, Cell Titer Glo reagent is added to determine number of viable cells remaining after exposure to the compound, and the EC50 value was calculated. The assay was performed according to the manufacturer's instruction (Promega Corporation, Madison, Wis. USA). Each experimental condition was performed in duplicate.
On the technique in general: In ATP-based viability assays light output follows the ATP content of the culture.

The next test has as its target PI3 kinase alpha (Homo sapiens, UniProt P42336). Briefly: PI3K ATP depletion assay (Biological Method 1, Assay 3). The format is biochemical. The protocol: Assay 3: ATP Depletion Assay
Compounds to be tested are dissolved in DMSO and directly distributed into a black 384-well plate at 1.25 μL per well. To start the reaction, 25 μL of 10 nM PI3 kinase and 5 μg/mL 1-alpha-phosphatidylinositol (PI) are added into each well followed by 25 μL of 2 μM ATP. The reaction is performed until approx 50% of the ATP is depleted, and then stopped by the addition of 25 μL of KinaseGlo solution purchased from Promega. The stopped reaction is incubated for 5 minutes and the remaining ATP is then detected via luminescence.

A further test has as its system pSer473 Akt. Briefly: pSer473 Akt assay to monitor PI3K pathway in A2780 cells (Biological Method 2). The format is cell-based. The settings on record: Homo sapiens, inhibition of Akt phosphorylation. The protocol: In this method, an assay for measuring the PI3K-mediated pSer473-Akt status after treatment with representative inhibitor compounds of the invention is described.
A2780 cells were cultured in DMEM supplemented with 10% FBS. L-glutamine, sodium pyruvate, and antibiotics. Cells were plated in the same medium at a density of 15,000 cells per well into 96 well tissue culture plates, with outside wells vacant, and allowed to adhere overnight.
Test compounds supplied in DMSO were diluted further into DMSO at 500 times the desired final concentrations before dilution into culture media to 2 times the final concentrations. Equal volumes of 2× compounds were added to the cells in 96 well plates and incubated at 37° C. for one hour. The media and compounds were then removed, the plates chilled and cells lysed in a lysis buffer (150 mM NaCl, 20 mM Tris pH 7.5, 1 mM EDTA, 1 mM EGTA, 1% Triton X-100) supplemented with phosphatase and protease inhibitors. After thorough mixing, lysates were transferred to both pSer473Akt and total Akt assay plates from Meso Scale Discovery (MSD), and incubated overnight with shaking at 4° C.
The assays were read on a SECTOR Imager 6000 instrument (Meso Scale Discovery). Ratios of the signal from pSer473Akt and total Akt assays were used to correct for any variability and the percent inhibition of pSer473Akt from the total signal seen in cells treated with compound versus DMSO alone was calculated and used to determine EC50 values for each compound.

PI3 kinase alpha, sequence (P42336 whole entry): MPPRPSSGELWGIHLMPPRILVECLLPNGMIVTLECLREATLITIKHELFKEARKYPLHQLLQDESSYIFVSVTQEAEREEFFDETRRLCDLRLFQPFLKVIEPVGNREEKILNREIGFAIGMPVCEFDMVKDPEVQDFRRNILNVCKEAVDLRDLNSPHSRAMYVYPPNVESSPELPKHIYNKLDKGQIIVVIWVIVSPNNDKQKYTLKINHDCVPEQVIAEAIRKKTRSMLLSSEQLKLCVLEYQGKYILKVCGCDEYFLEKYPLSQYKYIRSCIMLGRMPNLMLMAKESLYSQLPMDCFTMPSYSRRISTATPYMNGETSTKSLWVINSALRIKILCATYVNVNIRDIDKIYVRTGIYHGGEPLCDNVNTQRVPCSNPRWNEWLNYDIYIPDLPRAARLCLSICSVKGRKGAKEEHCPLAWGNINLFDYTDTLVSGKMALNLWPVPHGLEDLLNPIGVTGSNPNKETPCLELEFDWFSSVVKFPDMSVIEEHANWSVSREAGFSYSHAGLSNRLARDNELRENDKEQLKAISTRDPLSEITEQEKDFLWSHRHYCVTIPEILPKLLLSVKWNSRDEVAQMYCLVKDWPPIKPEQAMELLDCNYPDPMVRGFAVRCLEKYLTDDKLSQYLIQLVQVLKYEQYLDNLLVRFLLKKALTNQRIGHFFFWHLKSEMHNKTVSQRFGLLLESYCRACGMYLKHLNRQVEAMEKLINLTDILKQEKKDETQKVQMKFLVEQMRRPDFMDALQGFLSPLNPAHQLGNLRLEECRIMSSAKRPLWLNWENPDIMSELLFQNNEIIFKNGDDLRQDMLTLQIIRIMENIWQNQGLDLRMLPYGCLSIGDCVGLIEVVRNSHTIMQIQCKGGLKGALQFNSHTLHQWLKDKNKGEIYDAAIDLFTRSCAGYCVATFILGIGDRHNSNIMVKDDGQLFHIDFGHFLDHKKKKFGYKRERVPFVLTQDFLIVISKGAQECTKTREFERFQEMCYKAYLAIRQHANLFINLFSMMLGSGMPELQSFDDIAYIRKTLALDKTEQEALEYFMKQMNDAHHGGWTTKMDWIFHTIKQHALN
PI3 kinase alpha, sequence (P27986 whole entry partner): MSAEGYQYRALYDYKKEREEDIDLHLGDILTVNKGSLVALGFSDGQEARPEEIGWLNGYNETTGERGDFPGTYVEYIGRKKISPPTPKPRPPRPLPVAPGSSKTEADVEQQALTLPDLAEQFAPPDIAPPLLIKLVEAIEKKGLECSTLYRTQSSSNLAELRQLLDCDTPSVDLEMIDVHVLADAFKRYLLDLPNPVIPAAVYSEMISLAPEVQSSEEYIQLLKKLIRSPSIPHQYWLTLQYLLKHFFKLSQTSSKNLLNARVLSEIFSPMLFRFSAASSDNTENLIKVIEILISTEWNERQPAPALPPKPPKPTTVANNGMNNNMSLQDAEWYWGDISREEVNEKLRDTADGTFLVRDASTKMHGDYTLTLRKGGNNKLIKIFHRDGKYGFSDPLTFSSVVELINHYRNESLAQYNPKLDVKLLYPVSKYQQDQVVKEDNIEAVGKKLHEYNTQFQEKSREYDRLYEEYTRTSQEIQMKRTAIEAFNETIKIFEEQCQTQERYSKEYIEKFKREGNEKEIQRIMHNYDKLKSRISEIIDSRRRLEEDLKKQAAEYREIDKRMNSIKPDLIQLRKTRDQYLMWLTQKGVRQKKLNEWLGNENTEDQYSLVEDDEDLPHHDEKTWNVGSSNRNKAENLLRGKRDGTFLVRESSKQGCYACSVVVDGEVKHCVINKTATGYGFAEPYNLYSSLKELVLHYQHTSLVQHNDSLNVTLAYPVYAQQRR

By pEC50 is commonly meant −log10 of the EC50, conventionally taken in molar units. Low values mean a high EC50, high ones a low EC50. With `CCN(CC)CCc1csc(Nc2cc(-c3cnc(N)cc3C(F)(F)F)nc(N3CCOCC3)n2)n1` [Compound 13], the pEC50 in test [1] was greater than 5.00.
The same measure, in the same setting: as for `COCCNc1cc(-c2cnc(N)nc2)nc(N2CCOCC2)n1` [Compound 14], the figure is greater than 5.00.
In turn, `CC(C)(C)Nc1cc(-c2cnc(N)nc2)nc(N2CCOCC2)n1` [Compound 16] had a pEC50 in test [1] greater than 5.00.
Regarding `Nc1cc(C(F)(F)F)c(-c2cc(N3CCCCC3=O)nc(N3CCOCC3)n2)cn1` [Compound 17], the pEC50 in test [1] was greater than 5.00.
In the case of `Nc1cc(C(F)(F)F)c(-c2cc(N3CCN(c4ccccc4)C3=O)nc(N3CCOCC3)n2)cn1` [Compound 18], the negative logarithm of the EC50 (pEC50) in test [1] is greater than 5.00.
Take `CC(=O)N1CCC(Oc2cc(-c3cnc(N)cc3C(F)(F)F)nc(N3CCOCC3)n2)CC1` [Compound 19]: the negative-log EC50 (pEC50) in test [1] is greater than 5.00.
For `CC(C)(C)OC(=O)N1CCC[C@H](Oc2cc(-c3cnc(N)cc3C(F)(F)F)nc(N3CCOCC3)n2)C1` [Compound 20], in test [1], the pEC50 is greater than 5.00.
Same read-out and setting: then `CC(=O)N1CCC[C@@H](Oc2cc(-c3cnc(N)nc3N)nc(N3CCOCC3)n2)C1` [Compound 29], with greater than 5.00.
For orientation: pIC50 means −log10 of the IC50, conventionally taken in molar units. Low readings indicate a large IC50, high ones a small IC50. Regarding `CCN(CC)CCc1csc(Nc2cc(-c3cnc(N)nc3C(F)(F)F)nc(N3CCOCC3)n2)n1` [Compound 55], the pIC50 against PI3 kinase alpha is greater than 6.00. Moreover, the pEC50 (with pSer473 Akt; in test [1]) was greater than 6.00 each time.
On to `Cc1c(Nc2ncc(-c3ccccc3)s2)nc(N2CCOCC2)nc1-c1cnc(N)nc1` [Compound 61], for which the negative-log IC50 (pIC50) against PI3 kinase alpha is greater than 6.00. For the same compound, the pEC50 (in the test with pSer473 Akt; in test [1]) was greater than 6.00 each time.
Consider `CS(=O)(=O)N1CCC[C@H](Oc2cc(-c3cnc(N)nc3N)nc(N3CCOCC3)n2)C1` [Compound 89], for which the negative-log IC50 (pIC50) on PI3 kinase alpha was greater than 6.00. Also, the pEC50 (with pSer473 Akt; in test [1]) was greater than 6.00 throughout.
The compound `CS(=O)(=O)c1cccc(-c2cc(-c3cnc(N)cc3C#N)nc(N3CCOCC3)n2)c1` [Compound 92] had a pEC50 in test [1] greater than 5.00.
Still for that read-out and setting: then `CC(C)N1CCC(Oc2ccc(Nc3cc(-c4cnc(N)cc4C(F)(F)F)nc(N4CCOCC4)n3)cn2)C1` (centres unmarked) [Compound 93], with greater than 5.00.
Same read-out and setting: then `CS(=O)(=O)c1cccc(-c2cc(-c3cnc(N)cc3C(F)(F)F)nc(N3CCOCC3)n2)c1` [Compound 95], with greater than 5.00; and `Nc1ncc(-c2cc(OC3CCN(C(=O)OC4CCCC4)CC3)nc(N3CCOCC3)n2)c(N)n1` [Compound 97], with greater than 5.00; and `CC(=O)N1CCC(Oc2cc(-c3cnc(N)nc3N)nc(N3CCOCC3)n2)CC1` [Compound 99], with greater than 5.00.
For `CC(=O)Nc1ncc(-c2cc(-c3cnc(N)cc3C(F)(F)F)nc(N3CCOCC3)n2)s1` [Compound 126], the pIC50 against PI3 kinase alpha is greater than 6.00. In addition, the pEC50 with pSer473 Akt was greater than 6.00; in test [1], greater than 5.00.
Turning to `CCN(CC)CCc1csc(Nc2cc(-c3cnc(N)nc3N)nc(N3CCOCC3)n2)n1` [Compound 133], the negative-log IC50 (pIC50) against PI3 kinase alpha is greater than 6.00. Also, the pEC50 (in the test on pSer473 Akt; in test [1]) was greater than 6.00 each time.
As to `Nc1ncc(-c2cc(OC3CCN(C(=O)OCc4ccccc4)CC3)nc(N3CCOCC3)n2)c(N)n1` [Compound 146], on PI3 kinase alpha, the pIC50 is greater than 6.00. The negative logarithm of the EC50 (pEC50) (in the test with pSer473 Akt; in test [1]) was greater than 6.00 each time.
Consider `COc1ccc(Nc2cc(-c3cnc(N)nc3C(F)(F)F)nc(N3CCOCC3)n2)cn1` [Compound 151], for which the pIC50 against PI3 kinase alpha is greater than 6.00. In addition, the pEC50 was greater than 6.00 in the test on pSer473 Akt and greater than 5.00 in test [1].
On PI3 kinase alpha, `Nc1ccc(-c2cc(-c3cc4ccccc4nc3NCCN3CCCC3)nc(N3CCOCC3)n2)cn1` [Compound 182] gave a negative logarithm of the IC50 (pIC50) greater than 6.00. In addition, the pEC50 (in the test with pSer473 Akt; in test [1]) was greater than 6.00 each time.
For `CN(C)CCOc1cncc(-c2cc(-c3cnc(N)cc3C(F)(F)F)nc(N3CCOCC3)n2)c1` [Compound 203], at PI3 kinase alpha, the pIC50 was greater than 6.00. In addition, the negative logarithm of the EC50 (pEC50) in the test on pSer473 Akt was greater than 6.00; in test [1] it was greater than 5.00.
Regarding `Nc1ncc(-c2cc(-c3cncc(O)c3)nc(N3CCOCC3)n2)cn1` [Compound 274], the pEC50 in test [1] is greater than 5.00.
In the case of `COc1cncc(-c2cc(-c3ccc(N)nc3)nc(N3CCOCC3)n2)c1` [Compound 275], the pEC50 in test [1] was greater than 5.00.
On the same count and under the same terms, then `Nc1ncc(-c2cc(-c3ccc(F)nc3)nc(N3CCOCC3)n2)cn1` [Compound 278], with greater than 6.00; and `Nc1ncc(-c2cc(-c3cnc(N)nc3)nc(N3CCOCC3)n2)cn1` [Compound 279], with greater than 6.00.
As for `Nc1cc(C(F)(F)F)c(-c2cc(-c3cccnc3NCCO)nc(N3CCOCC3)n2)cn1` [Compound 285], the pIC50 against PI3 kinase alpha is greater than 6.00. The compound further had a pEC50 in test [1] greater than 5.00.
Regarding `Nc1cc(Cl)c(-c2cc(OC3CCOCC3)nc(N3CCOCC3)n2)cn1` [Compound 328], the pEC50 in test [1] is greater than 5.00.
Turning to `N#Cc1cccnc1Nc1cc(-c2ccc(N)nc2)nc(N2CCOCC2)n1` [Compound 364], the pIC50 against PI3 kinase alpha was greater than 5.00. Also, the pEC50 in test [1] was greater than 4.60.
Turning to `Cn1c(Nc2cc(-c3cnc(N)nc3)nc(N3CCOCC3)n2)nc2ccccc21` [Compound 394], on PI3 kinase alpha, the pIC50 was greater than 6.00. The negative logarithm of the EC50 (pEC50) in test [1] is greater than 5.00.
`Nc1ncc(-c2cc(N[C@H]3CCC[C@@H]3OCc3ccccc3)nc(N3CCOCC3)n2)cn1` [Compound 396] had a negative-log IC50 (pIC50) against PI3 kinase alpha greater than 6.00. The compound further gave a pEC50 in test [1] greater than 5.00.
With `Nc1ncc(-c2cc(Nc3ccnc4c(C(F)(F)F)cccc34)nc(N3CCOCC3)n2)cn1` [Compound 408], the negative logarithm of the IC50 (pIC50) against PI3 kinase alpha (Table 1, Biological Method 1) is greater than 6.00. In test [1] (Biological Method 4), this compound showed a negative logarithm of the EC50 (pEC50) greater than 5.00.
As to `CN(C)C(=O)c1cnc(N2CCOCC2)nc1-c1cnc(N)nc1` [Compound 422], the negative-log IC50 (pIC50) at PI3 kinase alpha (Table 1, Biological Method 1) was greater than 5.00.
The same measure, in the same setting: as for `Nc1ccc(-c2cc(NCc3ccncc3)nc(N3CCOCC3)n2)cn1` [Compound 443], the figure is greater than 5.00; as for `Nc1ccc(-c2cc(NCc3ccccn3)nc(N3CCOCC3)n2)cn1` [Compound 444], greater than 5.00.
Still for that read-out and setting: as for `Nc1ccc(-c2cc(NCc3cccnc3)nc(N3CCOCC3)n2)cn1` [Compound 445], the figure is greater than 5.00; as for `CS(=O)(=O)Nc1cc(N)ncc1-c1cc(Nc2cnc3ccccc3c2)nc(N2CCOCC2)n1` [Compound 492], greater than 5.00.
In turn, `COc1ccc2cc(Nc3cc(-c4ccc(N)nc4)nc(N4CCOCC4)n3)cnc2c1` [Compound 494] had a pEC50 in test [1] (Biological Method 4) greater than 5.00.
Consider `Nc1ccc(-c2cc(Nc3cnc4ccc(OC(F)(F)F)cc4c3)nc(N3CCOCC3)n2)cn1` [Compound 496], for which, at PI3 kinase alpha (Table 1, Biological Method 1), the negative-log IC50 (pIC50) was greater than 5.00.
Take `Nc1ccc(-c2cc(-c3ccc(N4CCN(CCO)CC4)nc3)nc(N3CCOCC3)n2)cn1` [Compound 499]: the negative logarithm of the IC50 (pIC50) at PI3 kinase alpha (Table 1, Biological Method 1) was greater than 6.00. The compound also had a pEC50 in test [1] (Biological Method 4) greater than 5.00.
The compound `CS(=O)(=O)Nc1ccc(-c2cc(-c3ccc(N)nc3)nc(N3CCOCC3)n2)cn1` [Compound 503] showed a pIC50 against PI3 kinase alpha (Table 1, Biological Method 1) greater than 6.00. Moreover, the pEC50 in test [1] (Biological Method 4) was greater than 5.00.
`N#Cc1cnc(Nc2cc(-c3cnc(N)nc3C(F)(F)F)nc(N3CCOCC3)n2)s1` [Compound 545] had a negative-log IC50 (pIC50) at PI3 kinase alpha (Table 1, Biological Method 1) greater than 6.00.
For the compound `Cc1c(Nc2nc(-c3ccccc3)cs2)nc(N2CCOCC2)nc1-c1cnc(N)cc1C(F)(F)F` [Compound 555], the negative logarithm of the IC50 (pIC50) on PI3 kinase alpha (Table 1, Biological Method 1) was greater than 5.00.
